# Earlier results as cited in patent US20200113856A1, “NON-PRESCRIPTION MOTION SICKNESS MEDICATION CONTAINING AN ANALGESIC, AN H2 BLOCKER, AND AT LEAST ONE ANTACID” (priority 2018, published 2020).
# What was measured:
# histamine H2 receptors = histamine H2 receptors (Homo sapiens, UniProt P25021); conditions: equimolar basis
# risk of stroke = conditions: in vivo
# platelet thromboxane = conditions: high-dose, throughout the dosing interval
# reflux esophagitis = conditions: patients with reflux esophagitis
# motion sickness = conditions: patch worn behind the ear
# blood pressure = conditions: several types of rat models susceptible to salt-sensitive hypertension, in contrast with sodium chloride
# histamine H2 receptors, sequence (P25021 whole entry): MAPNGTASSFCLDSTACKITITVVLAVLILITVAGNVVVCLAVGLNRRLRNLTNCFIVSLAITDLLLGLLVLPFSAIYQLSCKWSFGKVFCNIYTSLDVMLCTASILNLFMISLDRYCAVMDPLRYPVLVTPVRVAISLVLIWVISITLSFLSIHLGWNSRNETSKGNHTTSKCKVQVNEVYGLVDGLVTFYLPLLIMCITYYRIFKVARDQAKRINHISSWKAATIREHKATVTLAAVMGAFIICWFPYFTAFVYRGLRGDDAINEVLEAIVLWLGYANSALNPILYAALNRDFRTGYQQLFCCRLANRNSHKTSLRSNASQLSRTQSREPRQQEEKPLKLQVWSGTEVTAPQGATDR
smiles,measurement,setting,value
NC(N)=Nc1nc(CSCCC(N)=NS(N)(=O)=O)cs1 [famotidine],times more potent than cimetidine,histamine H2 receptors,~20 times
same,times more potent than nizatidine,histamine H2 receptors,approximately 7.5 times
same,times more potent than ranitidine,histamine H2 receptors,approximately 7.5 times
COc1ccc2cc([C@H](C)C(=O)O)ccc2c1 [Naproxen],associated risk of stroke compared with ibuprofen,risk of stroke,roughly 50%
same,suppression of platelet thromboxane,platelet thromboxane,near-complete suppression
CNC(=C[N+](=O)[O-])NCCSCc1csc(CN(C)C)n1 [nizatidine],effectiveness as maintenance therapy versus famotidine,reflux esophagitis,more effective H2RA than famotidine
CN1[C@@H]2C[C@@H](OC(=O)[C@H](CO)c3ccccc3)C[C@H]1[C@@H]1O[C@@H]12 [Scopolamine],duration of effectiveness of patch,motion sickness,three days
CC(=O)Nc1ccc(O)cc1 [Acetaminophen],duration of effects,pain or fever; in vivo,between two and four hours
"O=C([O-])O.[Na+] [Sodium bicarbonate, sodium hydrogen carbonate]",effect on blood pressure,blood pressure,no effect
"CC(=O)Oc1ccccc1C(=O)O [Aspirin, acetylsalicylic acid]",time until effects begin,pain or fever; for pain or fever,≤ 30 min
